# From patent publication US8207131B2, “Peptide” (Megmilk Snow Brand Co., Ltd., priority 2006, dated 2012)
# No end group written: not given here.
# Tests used:
# [1] = antioxidative activity by linoleic acid-β-carotene degradation method; assay type: biochemical
# Experimental: The antioxidative activity of the peptide fractionated in Example 1 was measured utilizing the β-carotene degradation effect of an oxide of linoleic acid. Specifically, a 300 ml Erlenmeyer flask was charged with 0.5 ml of a β-carotene solution (1 mg/ml chloroform), 0.2 ml of a linoleic acid solution (100 mg/ml chloroform), and 1.0 ml of a Tween 40 solution (200 mg/ml chloroform). After completely removing chloroform using nitrogen gas, 100 ml of distilled water was added to dissolve the components. 9.0 ml of a 0.2 M phosphate buffer (pH: 7.0) was then added to the solution to prepare a linoleic acid-β-carotene solution. 0.18 ml of the linoleic acid-β-carotene solution was added to a […] microwell plate to which 0.02 ml of the peptide fraction was provided. The absorbance S0 at 490 nm was measured immediately after the addition. When preparing the linoleic acid-β-carotene solution, the amount of the β-carotene solution was appropriately adjusted so that the absorbance S0 was about 1.2 (1.1 to 1.3). The microwell plate was placed in a thermostat bath at 50° C. immediately after measuring the absorbance S0, and the peptide fraction was incubated for 30 minutes. The absorbance S30 was measured immediately after incubation. A decrease (ΔS=S0−S30) in absorbance at 490 nm over 30 minutes was then calculated. 70% ethanol was used as a blank instead of the sample and subjected to the above operation. Specifically, the absorbance B0 immediately after adding the linoleic acid-β-carotene solution and the absorbance B30 after being kept at 50° C. for 30 minutes were measured, and a decrease (ΔB=B0−B30) in absorbance at 490 nm over 30 minutes was calculated. The antioxidative activity (antioxidation rate (%)) was determined by substituting the resulting values in the following expression. Antioxidation rate (%)=[ΔB−ΔS]/(ΔB)×100
# As a positive control, carnosine (β-Ala-L-His; manufactured by Peptide Institute, Inc.) (muscle-derived antioxidative peptide) prepared to a concentration of 0.01 μg/ml, 0.1 μg/ml, or 1 μg/ml was used.
# The antioxidative activity of the peptide obtained in Example 2 was measured in the same manner as in Test Example 1. As a positive control, carnosine (β-Ala-L-His; manufactured by Peptide Institute, Inc.) (muscle-derived antioxidative peptide) and catechin (manufactured by Wako Pure Chemical Industries, Ltd.) (1 μm, 10 μm, or 100 μm) were used. Table 2 and FIG. 3 show the evaluation results for the antioxidative activity of the synthetic peptide.
# The antioxidative activities of the two peptides (i.e., tryptic digests) obtained in Examples 3 and the tryptic digest before fractionation were measured using a carotene degradation method in the same manner as in Test Example 2. The peptide concentration was determined by dissolving each peptide in 500 μl of pure water and measuring the peptide concentration using a Micro BCA Protein assay kit (manufactured by Pierce). As a positive control, carnosine (β-Ala-L-His; manufactured by Peptide Institute, Inc.) and catechin (manufactured by Wako Pure Chemical Industries, Ltd.) were used in the same manner as in Test Example 2. A diluted solution (1 ng/ml, 10 ng/ml, and 100 ng/ml) was prepared for each fragment, and the antioxidative activity was evaluated using the β-carotene degradation method.
# [2] = test system: rat primary-cultured visceral fat cells (VAC01); assay: peptide adipocyte administration experiment; assay type: cell-based
# Experimental: Experiments were conducted in which the peptide isolated from the cheese in Example 1 was administered to primary-cultured visceral fat cells.
# The experiments were conducted using rat primary-cultured visceral fat cells (VAC01, manufactured by Cell Garage Co., Ltd.) and a visceral fat cytodifferentiation medium (manufactured by Cell Garage Co., Ltd.). Cells preserved in a frozen state in accordance with the protocol provided by Cell Garage Co., Ltd. were melted and disseminated in a 24-well plate (zeroth day). A culture medium (peptide concentration: 100 μM, 50 μM, 10 μM, or 0 μM) in which the synthetic peptide was dissolved was added to the 24-well plate on the second day, fifth day, and seventh day, and the synthetic peptide was cultured. The culture supernatant liquid was collected on the fifth day, seventh day, and eighth day to measure the adiponectin level. The cells were collected on the eighth day. The enzyme activity of glycerol-3-phosphate dehydrogenase (GPDH) in the cells, the DNA content of each well, and the intracellular fat accumulation level were measured. GPDH is an enzyme that functions when triglyceride is synthesized from glucose to produce mature fat cells. In this example, preadipocytes were differentiated, and the effect of administration of the peptide according to the present invention was observed.
# The DNA content was determined using a DNA quantization kit (manufactured by Cell Garage Co., Ltd.).
# The glycerol-3-phosphate dehydrogenase (GPDH) enzyme activity in the cells was measured using a GPDH activity measurement kit (manufactured by Cell Garage Co., Ltd.) in accordance with the protocol provided by Cell Garage Co., Ltd. The measurement results were standardized by the content of DNA extracted from each well.
# The adiponectin level in the culture supernatant liquid was measured using an adiponectin ELISA kit (manufactured by Otsuka Pharmaceutical Co., Ltd.). The measurement results were standardized by the content of DNA extracted from each well.
# The intracellular fat accumulation was determined by fat staining with oil red O and absorbance measurement using a fat staining kit (manufactured by Cell Garage Co., Ltd.).
# [3] = sample concentration 0.01 μg/ml, Test Example 1
# [4] = sample concentration 0.1 μg/ml, Test Example 1
# [5] = sample concentration 1 μg/ml, Test Example 1
# [6] = sample concentration 1 μg/ml, Test Example 2
# [7] = sample concentration 10 μg/ml, Test Example 2
# [8] = sample concentration 100 μg/ml, Test Example 2
# [9] = Test Example 3, tryptic digest peptides, 1, 10, 100 ng/ml, FIG. 5
Compound,"Antioxidative activity (%) [1, 3]","Antioxidative activity (%) [1, 4]","Antioxidative activity (%) [1, 5]","Antioxidative activity (%) [1, 6]","Antioxidative activity (%) [1, 7]","Antioxidative activity (%) [1, 8]","antioxidative activity (in words) [1, 9]",further results
HPIKHQGLPQ,13.0%,41.0%,64.6%,32.86%,61.13%,63.6%,–,"antioxidative activity (in words) ([1]; Test Example 1, peptide purified from Gouda cheese): had antioxidative activity (radical scavenger activity); antioxidative activity (in words) ([1]; Test Example 2, synthetic peptide, FIG. 3): strong antioxidative activity; production of adiponectin (per unit DNA content) vs cells without peptide ([2]; culture supernatant, seventh day, 10, 50, 100 μM, FIG. 6): significantly more adiponectin; cell DNA content of each well vs group without peptide ([2]; eighth day, Student t-test): a significant difference in cell DNA content was not observed; fat accumulation (oil red O staining) vs cells without peptide ([2]; eighth day, Student t-test, FIG. 7): a significant difference in fat accumulation was not observed; GPDH activity (per unit DNA content) vs group without peptide ([2]; peptide 100 μM, eighth day): A significant difference was not observed; fat accumulation (oil red O staining) ([2]; peptide 100 μM, eighth day): decreased to only a small extent; GPDH activity (per unit DNA content) vs group without peptide ([2]; peptide 10 or 50 μM, eighth day): significantly higher"
His-Pro-Ile-Lys (HPIK; Bovine),–,–,–,–,–,–,strong antioxidative activity,–
HQGLPQ,–,–,–,–,–,–,strong antioxidative activity,–
"NCCC(=O)N[C@@H](Cc1cnc[nH]1)C(=O)O [Carnosine, β-Ala-L-His, reference compound]",32.9%,57.8%,78.3%,7.07%,21.2%,48.41%,–,–
catechin [reference compound],–,–,–,52.65%,84.45%,97.17%,–,–
